Laboratory results: ChEMBL document CHEMBL4627333, “Addition of ethylamines to the phenols of bithionol and synthetic retinoids does not elicit activity in gram-negative bacteria” (2020)
≈ marks a conversion by molar mass, not a printed value.

How the values were obtained:
[1] = tested on: Staphylococcus aureus; experiment: Membrane disrupting activity in methicillin-resistant Staphylococcus aureus MW2 assessed as antibacterial activity by measuring inhibition of bacterial growth by CLSI-based antimicrobial dilution susceptibility method
[2] = tested on: Staphylococcus aureus; experiment: Membrane disrupting activity in methicillin-resistant Staphylococcus aureus BF1 assessed as antibacterial activity by measuring inhibition of bacterial growth by CLSI-based antimicrobial dilution susceptibility method
[3] = tested on: Staphylococcus aureus; experiment: Membrane disrupting activity in methicillin-resistant Staphylococcus aureus BF2 assessed as antibacterial activity by measuring inhibition of bacterial growth by CLSI-based antimicrobial dilution susceptibility method
[4] = tested on: Acinetobacter baumannii; experiment: Membrane disrupting activity in Acinetobacter baumannii ATCC 17978 assessed as antibacterial activity by measuring inhibition of bacterial growth by CLSI-based antimicrobial dilution susceptibility method
[5] = tested on: Staphylococcus aureus; experiment: Membrane disrupting activity in methicillin-resistant Staphylococcus aureus BF3 assessed as antibacterial activity by measuring inhibition of bacterial growth by CLSI-based antimicrobial dilution susceptibility method
[6] = tested on: Klebsiella pneumoniae; experiment: Membrane disrupting activity in Klebsiella pneumoniae WGLW2 assessed as antibacterial activity by measuring inhibition of bacterial growth by CLSI-based antimicrobial dilution susceptibility method; conditions: subsp. pneumoniae WGLW2
[7] = tested on: Pseudomonas aeruginosa; experiment: Membrane disrupting activity in Pseudomonas aeruginosa PA14 assessed as antibacterial activity by measuring inhibition of bacterial growth by CLSI-based antimicrobial dilution susceptibility method

Question: `O=C(O)c1ccc2cc(-c3ccc(O)c(C45CC6CC(CC(C6)C4)C5)c3)ccc2c1` [O-DEMETHYLATED ADAPALENE] was tested. Which MIC [1] did it give?
Answer: Its MIC is 2 µg/mL (≈ 5.02 µM).

Question: What about the MIC [2] of the same compound?
Answer: The MIC was 2 µg/mL (≈ 5.02 µM).

Question: What about the MIC [3] of the same compound?
Answer: The MIC was 2 µg/mL (≈ 5.02 µM).

Question: And the MIC [4]?
Answer: The MIC was greater than 64 µg/mL.

Question: And the MIC [5]?
Answer: Its MIC is 1 µg/mL (≈ 2.51 µM).

Question: And the MIC [6]?
Answer: Its MIC is greater than 64 µg/mL.

Question: And the MIC [7]?
Answer: The MIC was greater than 64 µg/mL.

Question: How did the MIC [1] turn out when `NCCOc1c(Cl)cc(Cl)cc1Sc1cc(Cl)cc(Cl)c1OCCN` was run?
Answer: The MIC was 64 µg/mL (≈ 145 µM).

Question: And the MIC [2]?
Answer: The MIC was 64 µg/mL (≈ 145 µM).

Question: What about the MIC [3] of the same compound?
Answer: The MIC was 64 µg/mL (≈ 145 µM).

Question: And the MIC [4]?
Answer: Its MIC is 64 µg/mL (≈ 145 µM).

Question: And the MIC [5]?
Answer: The MIC was 32 µg/mL (≈ 72.4 µM).

Question: And the MIC [6]?
Answer: Its MIC is 64 µg/mL (≈ 145 µM).

Question: And the MIC [7]?
Answer: Its MIC is greater than 64 µg/mL.

Question: With `NCCOc1ccc(-c2ccc3cc(CO)ccc3c2)cc1C12CC3CC(CC(C3)C1)C2` as the compound, how does the MIC [1] read?
Answer: The MIC was greater than 64 µg/mL.

Question: And the MIC [2]?
Answer: Its MIC is greater than 64 µg/mL.

Question: What about the MIC [3] of the same compound?
Answer: Its MIC is greater than 64 µg/mL.

Question: And the MIC [4]?
Answer: The MIC was greater than 64 µg/mL.

Question: What about the MIC [5] of the same compound?
Answer: The MIC was greater than 64 µg/mL.

Question: What about the MIC [6] of the same compound?
Answer: Its MIC is greater than 64 µg/mL.

Question: And the MIC [7]?
Answer: Its MIC is greater than 64 µg/mL.

Question: `NCCOc1cc(C(=O)O)cc2ccc(-c3ccc(O)c(C45CC6CC(CC(C6)C4)C5)c3)cc12` was tested. Which MIC [1] did it give?
Answer: Its MIC is 8 µg/mL (≈ 17.5 µM).

Question: What about the MIC [2] of the same compound?
Answer: Its MIC is 8 µg/mL (≈ 17.5 µM).

Question: And the MIC [3]?
Answer: Its MIC is 16 µg/mL (≈ 35 µM).

Question: And the MIC [4]?
Answer: The MIC was greater than 64 µg/mL.

Question: What about the MIC [5] of the same compound?
Answer: Its MIC is 4 µg/mL (≈ 8.74 µM).

Question: And the MIC [6]?
Answer: The MIC was greater than 64 µg/mL.

Question: What about the MIC [7] of the same compound?
Answer: Its MIC is greater than 64 µg/mL.

Question: What does the source list for `Oc1c(Cl)cc(Cl)cc1Sc1cc(Cl)cc(Cl)c1O` [BITHIONOL]?
Answer: MIC [1]: 1 µg/mL (≈ 2.81 µM); MIC [2]: 1 µg/mL (≈ 2.81 µM); MIC [3]: 1 µg/mL (≈ 2.81 µM); MIC [4]: 16 µg/mL (≈ 44.9 µM); MIC [5]: 0.5 µg/mL (≈ 1.4 µM); MIC [6]: 64 µg/mL (≈ 180 µM); MIC [7]: 32 µg/mL (≈ 89.9 µM)

Question: For `NCCOc1cc(CO)cc2ccc(-c3ccc(O)c(C45CC6CC(CC(C6)C4)C5)c3)cc12`, which MIC [1] is on record?
Answer: The MIC was 4 µg/mL (≈ 9.02 µM).

Question: What about the MIC [2] of the same compound?
Answer: Its MIC is 4 µg/mL (≈ 9.02 µM).

Question: And the MIC [3]?
Answer: Its MIC is 4 µg/mL (≈ 9.02 µM).

Question: What about the MIC [4] of the same compound?
Answer: The MIC was greater than 64 µg/mL.

Question: And the MIC [5]?
Answer: Its MIC is 4 µg/mL (≈ 9.02 µM).

Question: And the MIC [6]?
Answer: The MIC was greater than 64 µg/mL.

Question: What about the MIC [7] of the same compound?
Answer: Its MIC is greater than 64 µg/mL.

Question: Which results are given for `NCCOc1ccc(-c2ccc3cc(C(=O)O)ccc3c2)cc1C12CC3CC(CC(C3)C1)C2`?
Answer: MIC [1]: > 64 µg/mL; MIC [2]: > 64 µg/mL; MIC [3]: > 64 µg/mL; MIC [4]: > 64 µg/mL; MIC [5]: > 64 µg/mL; MIC [6]: > 64 µg/mL; MIC [7]: > 64 µg/mL
